Entries after “also recorded” stand apart in the source; their conditions may differ. Read-outs that look alike come from different tables or passages of the source.
Tests used:
[1] = target: T1, human IDO1 expressing HEK293 recombinant cells (Homo sapiens, UniProt P14902); experiment: Cell based assay for anti-IDO1 activity by determination of tryptophan and kynurenine in culture supernatant using LC-MS; details: for IC50: human IDO1-expressing HEK293 cells, doxycycline induced, 24 h, dose-response curve
T1 construct: expressed in transfected cells; host or cells: Flp-In-Rex- HEK293 cells (Invitrogen), pcDNA5/FRT/TO vector, doxycycline-induced
T1 sequence (P14902 whole entry): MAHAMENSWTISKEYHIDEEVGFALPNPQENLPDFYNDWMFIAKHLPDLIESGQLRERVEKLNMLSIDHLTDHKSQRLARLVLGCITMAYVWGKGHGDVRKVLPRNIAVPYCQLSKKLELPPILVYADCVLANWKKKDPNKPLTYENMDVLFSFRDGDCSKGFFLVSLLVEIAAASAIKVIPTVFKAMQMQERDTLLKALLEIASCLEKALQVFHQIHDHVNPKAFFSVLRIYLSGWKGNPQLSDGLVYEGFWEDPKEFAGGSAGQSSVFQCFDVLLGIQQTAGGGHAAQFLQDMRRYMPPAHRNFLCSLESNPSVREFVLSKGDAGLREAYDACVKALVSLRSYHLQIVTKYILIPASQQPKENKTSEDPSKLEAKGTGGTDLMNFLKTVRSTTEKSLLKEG
Procedure: All synthesized compounds were evaluated for inhibitory activities against IDO1. For this purpose, we generated human IDO1 gene-expressing HEK293 recombinant cells and used those cells to analyze the inhibitory capacity of the compounds. Briefly, we induced the expression vector system of IDO1 by treating […] cells with doxycycline, and measured both the depletion of L-tryptophan in culture media and the generation of kynurenine in IDO1-overexpressing HEK293 cells by using the LC-MS system upon culture supernatants.
cDNA of human IDO1 gene (provided from Korean UniGene, Daejeon, Korea) was inserted into pcDNA5/FRT/TO expression vector (Invitrogen, Waltham, MA, USA) and transfected into Flp-In-Rex- HEK293 cells (Invitrogen). After transfection, homogenous IDO1 expressing HEK293 cells were selected using hygromycin and confirmed for their IDO1 expression using Western blot.
To analyze anti-IDO1 activity of compounds, human IDO1 expressing HEK293 recombinant cells were seeded in 100 μL of complete MEM media containing 10% FBS in a 96-well plate. After incubation for 48 hours, various concentrations of compounds with 0.2 ng/mL doxycyclin (Sigma Aldrich, St. Louis, MO, USA) was treated and incubated for 24 h. Culture supernatants were collected and prepared for analysis of tryptophan and kynurenine using LC-MS. For preparation of samples for LC-MS analysis, 30 μL of culture supernatant was mixed with 2 μM caffeine containing 270 μL methanol. After centrifugation at 12,000 rpm for 10 min, 100 μL of supernatant was transferred into new 1.5 mL tubes. Distilled water (900 μL) was added into 100 μL of supernatant and vortexed. The concentrations of tryptophan and kynurenine were determined by an LC-MS/MS system consisting of an Agilent 1200 series HPLC system (Agilent Technologies, Santa Clara, CA, USA) with an API 4000 QTRAP hybrid triple quadrupole/linear ion trap mass spectrometer (AB Sciex, Foster City, CA, USA) equipped with a turbo electrospray interface. Chromatographic separation of tryptophan and kynurenine was achieved on a Unison UK-C18 column (100 mm × 2 mm i.d., 3 μm; Imtakt, Kyoto, Japan) with a Security Guard C18 guard column (4 mm × 20 mm i.d.; Phenomenex, Torrance, CA, USA) maintained at 25 °C. Isocratic mode was used to achieve separation of the analytes using mobile phase (acetonitrile with 0.1 formic acid and water with 0.1% formic acid (20:80 v/v) at a flow rate of 300 μL/min for 3 min. The multiple reaction monitoring (MRM) transition was m/z 204.94 → 188.1 for tryptophan and m/z 208.97 → 192.00 for kynurenine under positive-ionization. Optimized values for de-clustering potential, collision energy, entrance potential, and collision-exit potential were 26 V, 15 eV, 9.5 V and 8 V and 21 V, 13 eV, 10 V and 8 V for tryptophan and kynurenine, respectively. The optimized instrument conditions were as follows: ion spray voltage, 5500 V; source temperature, 450 °C; curtain gas, 25 psi; nebulizing gas (GS1), 30 psi; heating gas (GS2), 30 psi. Data analysis was performed using Analyst Software version 1.4.2. (AB Sciex, Foster City, CA, USA).

hIDO1 = target: T2, hIDO1 (Homo sapiens, UniProt P14902); experiment: hIDO1 enzymatic assay (BPS Bioscience IDO1 inhibitor screening assay kit); assay type: biochemical; details: for inhibition at 20 µM: 20 µM compound, enzymatic assay
T2 construct: purchased BPS Bioscience (San Diego, CA, USA)
T2 sequence (P14902 whole entry): as above
Procedure: To analyze the hIDO1 inhibitory activities of compounds, we used IDO1 inhibitor screening assay kit and followed the protocol provided from BPS Bioscience (San Diego, CA, USA). Briefly, 5 μL of IDO solution was aliquoted into a 384-well plate and treated with 5 μL of compound in buffer at room temperature for 3 h. The data was measured at λ = 320 to 325 nm.

[2] = kynurenine by LC-MS, read-out: HEK293 IC50 Kynurenine Production
[3] = tryptophan by LC-MS, read-out: HEK293 IC50 Tryptophan Depletion

IDO1 inhibition in cell-based assay (in words) [1]	IC50 [1, 2] [µM]	IC50 [1, 3] [µM]	inhibition at 20 µM (hIDO1) [%]	hIDO1 inhibition in enzymatic assay (in words) (hIDO1)	SMILES
	3.14	3.26	79		O/N=C(\Nc1ccc(F)c(Cl)c1)c1cccc2cn[nH]c12 [Compound 8b, (Z)-N-(3-Chloro-4-fluorophenyl)-N′-hydroxy-1H-indazole-7-carboximidamide]
	4.89	4.95	77		O/N=C(\Nc1cccc(Cl)c1)c1cccc2cn[nH]c12 [Compound 8c, (Z)-N-(3-Chlorophenyl)-N′-hydroxy-1H-indazole-7-carboximidamide]
	> 10	> 10			O/N=C(\Nc1ccc(F)cc1)c1cccc2cn[nH]c12 [Compound 8d, (Z)-N-(4-Fluorophenyl)-N′-hydroxy-1H-indazole-7-carboximidamide]
	> 10	> 10			O/N=C(\Nc1cc(F)ccc1F)c1cccc2cn[nH]c12 [Compound 8e, (Z)-N-(2,5-Difluorophenyl)-N′-hydroxy-1H-indazole-7-carboximidamide]
	> 10	> 10			CC(=O)c1cccc(N/C(=N\O)c2cccc3cn[nH]c23)c1 [Compound 8f, (Z)-N-(3-Acetylphenyl)-N′-hydroxy-1H-indazole-7-carboximidamide]
	> 10	> 10			Cc1cccc(N/C(=N\O)c2cccc3cn[nH]c23)c1 [Compound 8g, (Z)-N′-Hydroxy-N-(m-tolyl)-1H-indazole-7-carboximidamide]
	> 10	> 10			Cc1cc(N/C(=N\O)c2cccc3cn[nH]c23)ccc1Cl [Compound 8h, (Z)-N-(4-Chloro-3-methylphenyl)-N′-hydroxy-1H-indazole-7-carboximidamide]
	> 10	> 10			COc1ccc(N/C(=N\O)c2cccc3cn[nH]c23)cc1Cl [Compound 8i, (Z)-N-(3-Chloro-4-methoxyphenyl)-N′-hydroxy-1H-indazole-7-carboximidamide]
	> 10	> 10			O/N=C(\Nc1ccccc1)c1cccc2cn[nH]c12 [Compound 8j, (Z)-N′-Hydroxy-N-phenyl-1H-indazole-7-carboximidamide]
	> 10	> 10			O/N=C(\Nc1ccc(Cl)cc1)c1cccc2cn[nH]c12 [Compound 8k, (Z)-N-(4-Chlorophenyl)-N′-hydroxy-1H-indazole-7-carboximidamide]
	> 10	> 10			COc1ccc(N/C(=N\O)c2cccc3cn[nH]c23)cc1 [Compound 8l, (Z)-N′-Hydroxy-N-(4-methoxyphenyl)-1H-indazole-7-carboximidamide]
	> 10	> 10			Cc1ccc(N/C(=N\O)c2cccc3cn[nH]c23)cc1 [Compound 8m, (Z)-N′-Hydroxy-N-(p-tolyl)-1H-indazole-7-carboximidamide]
did not inhibit IDO1	> 10	> 10	15	did not inhibit IDO1	Cn1ncc2cccc(/C(=N/O)Nc3ccc(F)c(Br)c3)c21 [Compound 12, (Z)-N-(3-Bromo-4-fluorophenyl)-N′-hydroxy-1-methyl-1H-indazole-7-carboximidamide]
moderate inhibitory activity	7.91	7.76			O/N=C(\Nc1ccc(F)c(Br)c1)c1ccccc1O [Compound 16, (Z)-N-(3-Bromo-4-fluorophenyl)-N′,2-dihydroxybenzimidamide]

SMILES	IDO1 inhibition in cell-based assay (in words) [1]	IC50 [1, 2] [µM]	IC50 [1, 3] [µM]	inhibition at 20 µM (hIDO1) [%]	hIDO1 inhibition in enzymatic assay (in words) (hIDO1)
O/N=C(\Nc1ccc(F)c(Br)c1)c1cccc2cn[nH]c12 [Compound 8a, (Z)-N-(3-Bromo-4-fluorophenyl)-N′-hydroxy-1H-indazole-7-carboximidamide]	most active in this series; also recorded: moderate IDO1 inhibitory activity	2.13	1.76	81	

Reference: article PMC6150275, “Synthesis and Molecular Modeling Studies of N′-Hydroxyindazolecarboximidamides as Novel Indoleamine 2,3-Dioxygenase 1 (IDO1) Inhibitors” (Molecules : A Journal of Synthetic Chemistry and Natural …, 2017)
